Reference: patent US7906540B2, “Non-nucleoside reverse transcriptase inhibitors” (Roche Palo Alto LLC, priority 2007, dated 2011)
Structures can show the parent of a compound that is named as a salt.

Key:
HXB2-strain of HIV = experiment: Antiviral assay: protection of HIV-infected MT4 cells from virus-mediated cell death (MTT); format: cell-based; settings: Human immunodeficiency virus 1, HXB2, MT4, 120 h, read-out: Antiviral Assay IC50
Protocol: Anti-HIV antiviral activity was assessed using an adaptation of the method of Pauwels et al. (J. Virol. Methods 1988 20:309-321). The method is based on the ability of compounds to protect HIV-infected T lymphoblastoid cells (MT4 cells) from cell-death mediated by the infection. The endpoint of the assay was calculated as the concentration of compound at which the cell viability of the culture was preserved by 50% (‘50% inhibitory concentration’, IC50). The cell viability of a culture was determined by the uptake of soluble, yellow 3-[4,5-dimethylthiazol-2-yl]-2,5-diphenyltetrazolium bromide (MTT) and its reduction to a purple insoluble formazan salt. After solubilization, spectrophotometric methods were employed to measure the amount of formazan product. […]
A fresh solution of 5 mg/mL MTT was prepared in 0.01 M phosphate buffered saline, pH 7.2 and 20 microliters added to each culture. […] When the formazan deposit was fully solubilized by further mixing, the absorbance (OD) of the cultures was measured at 540 nm and 690 nm wavelength (690 nm readings were used as blanks for artifacts between wells). The percent protection for each treated culture was then calculated from the equation: […]

Q: With `Cn1c(COc2ccc(Cl)cc2C(=O)c2cc(Cl)cc(C#N)c2)n[nH]c1=O` as the molecule, how does the melting point read?
A: 210 to 213.9 °C

Q: For `Cn1c(COc2ccc(Br)c(Oc3cc(Cl)cc(C#N)c3)c2)n[nH]c1=O`, which melting point is on record?
A: 95.2 to 100.7 °C

Q: For `CCc1ccc(OCc2n[nH]c(=O)n2C)c(F)c1Oc1cc(Cl)cc(C#N)c1`, which melting point is on record?
A: 179 to 180 °C

Q: For `Cn1c(COc2ccc(Br)c(F)c2Oc2cc(C#N)cc(C(F)F)c2)n[nH]c1=O`, which melting point is on record?
A: 193 to 194 °C

Q: Which melting point does the source give for `CCc1ccc(OCc2n[nH]c(=O)n2C)c(Oc2cc(C#N)cc(C(F)F)c2)c1F` here?
A: 160 to 161 °C

Q: With `Cn1c(CCc2ccc(Br)c(F)c2Oc2cc(Cl)cc(C#N)c2)n[nH]c1=O` as the molecule, how does the melting point read?
A: 212.4 to 214.2 °C

Q: For `CCc1cc(C#N)cc(Oc2c(OCc3n[nH]c(=O)n3C)ccc(CC)c2F)c1`, which melting point is on record?
A: 164 to 166 °C

Q: With `CCc1ccc(OCc2n[nH]c(=O)n2C)c(Oc2cc(C#N)cc(C3CC3)c2)c1F` as the molecule, how does the melting point read?
A: 166 to 168 °C

Q: With `Cn1c(COc2ccc(Br)c(F)c2Oc2cc(C#N)cc(CC(F)(F)F)c2)n[nH]c1=O` as the molecule, how does the melting point read?
A: 197.1 to 202.1 °C

Q: For `Cn1c(COc2ccc(Cl)c(Oc3cc(Cl)cc(C#N)c3)c2Cl)n[nH]c1=O`, which melting point is on record?
A: 224.4 to 225.6 °C

Q: Which melting point does the source give for `Cn1c(COc2ccc(Cl)cc2Oc2cc(Cl)cc(C#N)c2)n[nH]c1=O` here?
A: 176 to 177 °C

Q: Which melting point does the source give for `Cn1c(COc2ccc(Cl)c(Oc3cc(C#N)cc(C(F)F)c3)c2F)n[nH]c1=O` here?
A: 184.5 to 185.3 °C

Q: For `Cn1c(COc2ccc(Br)c(F)c2Oc2cc(Cl)cc(C#N)c2)n[nH]c1=O`, which melting point is on record?
A: 192.5 to 193 °C

Q: Which melting point does the source give for `Cn1c(COc2ccc(Br)c(F)c2Oc2cc(C#N)cc(C#N)c2)n[nH]c1=O` here?
A: 205.5 to 207 °C

Q: With `Cn1c(CCc2ccc(Br)c(Oc3cc(Cl)cc(C#N)c3)c2F)n[nH]c1=O` as the molecule, how does the melting point read?
A: 186 to 187 °C

Q: For `Cn1c(COc2ccc(Cl)c(Oc3cc(Cl)cc(C#N)c3)c2F)n[nH]c1=O` (as salt: salt) [Compound I-2, 3-Chloro-5-[6-chloro-2-fluoro-3-(4-methyl-5-oxo-4,5-dihydro-1H-[1,2,4]triazol-3-ylmethoxy)-phenoxy]-benzonitrile; formate salt], which melting point is on record?
A: 221 to 225 °C

Q: With `Cn1c(COc2ccc(Br)c(Oc3cc(C#N)cc(C(F)F)c3)c2F)n[nH]c1=O` (as salt: salt) [Compound I-4, 3-[6-Bromo-2-fluoro-3-(4-methyl-5-oxo-4,5-dihydro-1H-[1,2,4]triazol-3-ylmethoxy)-phenoxy]-5-difluoromethyl-benzonitrile; trifluoro-acetic acid salt] as the molecule, how does the melting point read?
A: 199.2 to 201 °C

Q: For `Cn1c(COc2ccc(Cl)c(Oc3cc(Cl)cc(C#N)c3)c2F)n[nH]c1=O` [Compound I-2, 3-Chloro-5-[6-chloro-2-fluoro-3-(4-methyl-5-oxo-4,5-dihydro-1H-[1,2,4]triazol-3-ylmethoxy)-phenoxy]-benzonitrile; formate salt], which IC50 (HXB2-strain of HIV) is on record?
A: 1.5 nM

Q: With `Cn1c(COc2ccc(Br)c(Oc3cc(C#N)cc(C(F)F)c3)c2F)n[nH]c1=O` [Compound I-4, 3-[6-Bromo-2-fluoro-3-(4-methyl-5-oxo-4,5-dihydro-1H-[1,2,4]triazol-3-ylmethoxy)-phenoxy]-5-difluoromethyl-benzonitrile; trifluoro-acetic acid salt] as the molecule, how does the IC50 (HXB2-strain of HIV) read?
A: 0.7 nM
